Values of other authors in paper PMC6376154 (International Journal for Parasitology: Drugs and Drug …, 2019).
pEC50: −log10 of the molar value. Where two headings read alike, the source gives them in different places.

Test system: P. falciparum 3D7 asexual blood stage
Conditions: cited from earlier work
[1] = MMV Malaria Box data sheet, ref MMV data sheets
[2] = MMV Malaria Box data sheet, ref MMV data sheets, read-out: EC50_nM
[3] = source GSK, ref ChEMBL_NTD, read-out: CHEMBL EC50
[4] = ChEMBL-NTD value per source (GNF, GSK, StJude), several values in a cell follow the order of the sources, read-out: CHEMBL EC50
[5] = MMV Malaria Box sheet, ref MMV data sheets
[6] = MMV Malaria Box data sheet (supplement mmc2.xls), ref MMV data sheet, read-out: EC50_nM
[7] = value(s) per source (GSK, GNF, StJude), separated by semicolon, ref ChEMBL-NTD, read-out: CHEMBL EC50
[8] = MMV Malaria Box data sheet (supplement mmc2.xls), ref MMV data sheet
[9] = MMV Malaria Box sheet, ref MMV data sheets, read-out: EC50_nM
[10] = source GNF, ref ChEMBL_NTD, read-out: CHEMBL EC50
[11] = source StJude, ref ChEMBL_NTD, read-out: CHEMBL EC50

Compound: COc1ccc(Br)cc1C1Nc2ccc3ccccc3c2C2=C1C(=O)CC(c1ccccc1)C2 (stereo not drawn) [MMV020885]
- percent_inh @ 5 uM [1]: 95%
- pEC50 [2]: 6.74
- pEC50 [3]: 6.23

Compound: Cc1ccc(-c2nc3ccccc3o2)cc1NCc1cc(Cc2ccccc2)ccc1O [MMV020912]
- pEC50 [4]: 5.99

Compound: CCC(=O)Nc1nnc(Cc2ccc(OC)c(OC)c2)s1 [MMV020942]
- percent_inh @ 5 uM [5]: 47%
- pEC50 [3]: 6.04

Compound: COc1cc(SC)ccc1C(=O)N1CCCC(C)C1 (stereo not drawn) [MMV056726]
- percent_inh @ 2 uM (2 uM, MMV Malaria Box data sheet (supplement mmc2.xls), ref MMV data sheet): 45%
- pEC50 [6]: 5.40
- pEC50 [7]: 5.01

Compound: CN(C)c1ccc(N=Cc2ccc(N3CCOCC3)cc2)cc1 [MMV073843]
- pEC50 [4]: 6.76

Compound: CCOc1ccc(C2N(C)c3ccccc3N2C)cc1 [MMV075490]
- percent_inh @ 5 uM [8]: 72%
- pEC50 [6]: 6.03

Compound: COc1cc2c(cc1OC)C1=NNC(=O)C1=NC(C)(C)C2 [MMV084940]
- pEC50 [9]: 5.98
- pEC50 [10]: 5.80

Compound: COc1ccccc1N=C1C(=O)c2ccccc2C(O)=C1N1CCCCC1 [MMV085203]
- percent_inh @ 5 uM [1]: 98%
- pEC50 [2]: 8.28
- pEC50 [10]: 7.55

Compound: CCOc1ccc(-n2cc(-c3ccccc3)c3c(SCc4cc(C)ccc4C)ncnc32)cc1 [MMV085471]
- percent_inh @ 5 uM [5]: 97%
- pEC50 [9]: 5.77
- pEC50 [10]: 5.70

Compound: CCCCCC(=O)N1c2ccccc2N=C2CC(c3ccc(OC)c(OC)c3)CC(O)=C2C1c1ccc(C(F)(F)F)cc1 (stereo not drawn) [MMV085583]
- percent_inh @ 5 uM [1]: 100%
- pEC50 [2]: 6.63
- pEC50 [10]: 6.97

Compound: Cc1ccc(C(=O)c2oc3ccc4c(C)cc(=O)oc4c3c2C)cc1 [MMV086103]
- pEC50 [4]: 5.99

Compound: COc1cc(CNCCc2ccc(Cl)cc2)cc(OC)c1O [MMV128432]
- pEC50 [4]: 5.16

Compound: CC(C)(C)c1ccc(C(=O)Nc2nc3ccccc3s2)cc1 [MMV142383]
- percent_inh @ 5 uM [8]: 81%
- pEC50 [7]: 4.82

Compound: COc1ccc2nc(C)cc(Nc3ccccc3O)c2c1 [MMV274073]
- pEC50 [6]: 6.16

Compound: CCn1nc(-c2ccc(C(=O)OC)cc2)nc2c(=O)n(C)c(=O)nc1-2 [MMV306025]
- pEC50 [6]: 6.16

Compound: CCOc1ccccc1CN1CCc2nc3cc(C(C)(C)C)nn3c(O)c2C1 [MMV396595]
- pEC50 [9]: 6.00

Compound: CCOc1c(Cl)cc(CNCC(O)c2ccccc2)cc1OC (stereo not drawn) [MMV396632]
- pEC50 [9]: 5.98

Compound: CCOc1cc(CNC(C)C(O)c2ccccc2)cc(Cl)c1OCC (stereo not drawn) [MMV396633]
- pEC50 [6]: 5.91

Compound: Cc1cc(N2CCCC2)nc(Nc2ccc(NC(=O)CCc3ccccc3)cc2)n1 [MMV396669]
- pEC50 [9]: 5.97

Compound: O=C(NCC(c1ccsc1)N1CCCCCC1)c1ccc(C(F)(F)F)cc1 (stereo not drawn) [MMV396672]
- pEC50 [2]: 6.36

Compound: O=C(CSc1nccn2nc(-c3ccccc3)cc12)Nc1cc(C(F)(F)F)ccc1Cl [MMV396678]
- pEC50 [2]: 6.66

Compound: COc1ccc(-c2cc3c(SCC(=O)Nc4cc(C(F)(F)F)ccc4Cl)nccn3n2)cc1 [MMV396679]
- pEC50 [2]: 7.05

Compound: Cc1ccc(-c2cc3c(SCC(=O)Nc4cc(C(F)(F)F)ccc4Cl)nccn3n2)cc1 [MMV396680]
- pEC50 [2]: 7.03

Compound: Cc1cc(NC(=O)c2cccc(C(F)(F)F)c2)n(-c2nc(-c3ccc4c(c3)OCO4)cs2)n1 [MMV396681]
- pEC50 [6]: 6.02

Compound: C[n+]1c2ccccc2nc2ccc(NCCO)cc21 [MMV396693]
- pEC50 [2]: 6.53

Compound: CCN(CC)CCNc1ncnc2c1[nH]c1ccc(Cl)cc12 [MMV396703]
- pEC50 [2]: 6.39

Compound: CN1CCN(c2ncnc3c2[nH]c2ccc(Cl)cc23)CC1 [MMV396704]
- pEC50 [9]: 5.92

Compound: COc1cccc(Cn2c(Oc3ccccc3)nc3c2c(=O)n(C)c(=O)n3C)c1 [MMV396705]
- pEC50 [9]: 5.86

Compound: CC1(c2ccccc2)Nc2ccccc2-c2nc3ccccc3n21 (stereo not drawn) [MMV396715]
- pEC50 [9]: 5.76

Compound: COc1cccc(C2(C)Nc3ccccc3-c3nc4ccccc4n32)c1 (stereo not drawn) [MMV396719]
- pEC50 [6]: 5.94

Compound: OC(CNCC1CCCO1)Cn1c2ccc(Cl)cc2c2cc(Cl)ccc21 (stereo not drawn) [MMV396736]
- pEC50 [6]: 5.97

Compound: CC(C)CNC(=O)c1c(N)n(CCc2ccccc2F)c2nc3ccccc3nc12 [MMV396744]
- pEC50 [6]: 6.08

Compound: COc1ccc2c(c1)C1(Nc3ccccc3-c3nc4ccccc4n31)C(=O)N2 (stereo not drawn) [MMV396749]
- pEC50 [9]: 6.03

Compound: CC(C)(C)CC(C)(C)NCC(O)COc1ccc(Cl)cc1Cl (stereo not drawn) [MMV396794]
- pEC50 [6]: 5.94

Compound: COc1ccc(-c2c(C)nn3c(N)c(C#N)cnc23)cc1OC [MMV396797]
- pEC50 [2]: 6.32

Compound: Cc1cccc(-n2ncc3c(=O)[nH]c(-n4nc(C)cc4NC(=O)c4cc5ccccc5o4)nc32)c1 [MMV403679]
- pEC50 [6]: 6.03

Compound: CCN(CC)CCCNc1ccnc2cc3ccccc3cc12 [MMV665783]
- percent_inh @ 5 uM [5]: 90%
- pEC50 [10]: 7.47

Compound: CC(C)(C)c1ccc(O)c(CNC2CCCCC2)c1 [MMV665785]
- percent_inh @ 5 uM [1]: 96%
- pEC50 [2]: 6.79
- pEC50 [10]: 6.60
- pEC50 [3]: 6.58

Compound: O=c1cc(NC2CCN(CCCc3ccccc3)CC2)c2cc(Cl)ccc2o1 [MMV665786]
- percent_inh @ 5 uM [5]: 97%
- pEC50 [9]: 6.07
- pEC50 [10]: 6.39

Compound: CC(NCc1ccccc1)c1cc(Cl)ccc1O (stereo not drawn) [MMV665789]
- percent_inh @ 5 uM [8]: 95%
- pEC50 [6]: 6.22
- pEC50 [7]: 6.23

Compound: FC(F)(F)c1cccc(Nc2nc3ccccc3nc2Nc2cccc(C(F)(F)F)c2)c1 [MMV665794]
- percent_inh @ 5 uM [5]: 99%
- pEC50 [9]: 6.50
- pEC50 [3]: 6.86

Compound: CCOc1cc(Br)c(C(C)NC(=O)c2cccc(OC)c2)cc1OCC (stereo not drawn) [MMV665796]
- percent_inh @ 5 uM [8]: 96%
- pEC50 [6]: 5.84
- pEC50 [7]: 6.77

Compound: CCCCOC(=O)c1ccc(Nc2cc(C)nc3ccc(OC)cc23)cc1 [MMV665797]
- percent_inh @ 5 uM [5]: 99%
- pEC50 [9]: 6.23
- pEC50 [3]: 6.19

Compound: FC(F)(F)c1cccc(Nc2nc(-c3ccccc3)nc3ncccc23)c1 [MMV665798]
- percent_inh @ 5 uM [8]: 74%
- pEC50 [7]: 6.10

Compound: COc1ccc(C(=O)Nc2ccc(Cl)cc2C(=O)Nc2ccncc2)cc1 [MMV665799]
- percent_inh @ 5 uM [8]: 93%
- pEC50 [7]: 6.08

Compound: CCOc1cc(Cl)c(C(C)NC(=O)c2cccc(OC)c2)cc1OCC (stereo not drawn) [MMV665803]
- percent_inh @ 5 uM [8]: 98%
- pEC50 [6]: 6.14
- pEC50 [7]: 6.02

Compound: CCOc1ccc(-c2nonc2NC(=O)c2cccc(C)c2)cc1OCC [MMV665805]
- percent_inh @ 5 uM [1]: 86%
- pEC50 [2]: 6.93
- pEC50 [11]: 7.21

Compound: Cc1c(C)n(CC(O)CNC2CCCCC2C)c2ccccc12 (stereo not drawn) [MMV665806]
- percent_inh @ 5 uM [5]: 96%
- pEC50 [9]: 6.11
- pEC50 [11]: 6.28

Compound: O=C(Nc1cccc(C(F)(F)F)c1)c1cc(Cl)ccc1O [MMV665807]
- percent_inh @ 5 uM [8]: 93%
- pEC50 [7]: 6.01

Compound: Oc1ccc(Br)cc1CN1CCN(Cc2ccc(Cl)cc2)CC1 [MMV665809]
- pEC50 [4]: 5.83

Compound: CCc1ccc(CNCC(O)c2ccccc2)cc1 (stereo not drawn) [MMV665812]
- pEC50 [4]: 5.66

Compound: CCOC(=O)c1cnc2ccc(OC)cc2c1NCc1ccccc1 [MMV665813]
- pEC50 [4]: 5.56

Compound: CC(C)(C)CC(C)(C)NCC(O)COc1ccc2c(c1)CCC2 (stereo not drawn) [MMV665817]
- percent_inh @ 5 uM [1]: 78%
- pEC50 [11]: 5.35

Compound: Cn1c(C(=O)c2cccc3ccccc23)nc2ccccc21 [MMV665824]
- pEC50 [4]: 8.16

Compound: COc1cccc(NC(=O)Cn2c(C)c(C#N)c3ccccc32)c1 [MMV665826]
- percent_inh @ 5 uM [8]: 95%
- pEC50 [6]: 5.96

Compound: CCOC(=O)c1cn(CC)c2cc(N3CCCCC3)c(F)cc2c1=O [MMV665827]
- percent_inh @ 5 uM [1]: 100%
- pEC50 [2]: 6.92
- pEC50 [10]: 6.78
- pEC50 [3]: 6.90

Compound: CC1CC2=C(CC1CNCCCN(C)C)C(C)(C)CCC2 (stereo not drawn) [MMV665830]
- pEC50 [4]: 6.60
